Experimental findings from patent publication US10774051B2, “6-membered heterocyclic derivatives and pharmaceutical composition comprising the same” (Shionogi & Co., Ltd., priority 2015, dated 2020) are described below.

Structures are written as SMILES. pIC50: −log10 of the molar value. Where two headings read alike, the source gives them in different places.

The assay concerns the target human P2X7 receptor (Homo sapiens, UniProt Q99572, R270H/Y155H). The experiment in a line: Evaluation of human P2X7 receptor inhibitory activity (Yo-Pro uptake, BzATP stimulation, FLIPR TETRA). It is filed as cell-based. The method, boiled down: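 Yo-Pro dye uptake triggered by BzATP was monitored by FLIPR in human P2X7-transfected 1321N1 cells (SNP variant) in HEPES-buffered HBSS, pH 7.4-7.5. Compound was dispensed 8 min post-stimulation, then signal read for 20 min; IC50 derived logistically from inhibition of the fluorescence range.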

[1] abbreviates: 1321N1 cells stably expressing human P2X7 receptor, BzATP stimulation, Yo-Pro uptake, read-out: IC50 (antagonistic activity for the human P2X7 receptor).
Where [2] appears, read: 1321N1 cells stably expressing human P2X7 receptor, BzATP stimulation, Yo-Pro uptake, read-out: IC50 (antagonistic activity for the human P2X7 receptor), class symbol.
Setting [3] is: antagonistic activity for the human P2X7 receptor, read-out: IC50.

As for `COc1cn(Cc2ccc(F)c(Cl)c2)c(Nc2ccc3oc(C)cc3c2C)nc1=O` [Compound I-0825], the pIC50 – broadly, −log10 of the IC50, conventionally taken in molar units – under setting [1] was 8.05.
The same measure, in the same setting: for `COc1cn(Cc2ccccc2)c(Nc2cccc3sccc23)nc1=O` [Compound I-0104] the value was 7.39.
For the compound `COc1cn(Cc2ccccc2)c(Nc2ccc(C)cc2C)nc1=O` [Compound I-0106], the pIC50 under setting [2] is 7.00 to 8.00.
As to `COc1cc(C)c(Nc2nc(=NC#N)c(OC)cn2Cc2cc(F)c(F)c(F)c2)cc1OC` [Compound I-1287], the pIC50 under setting [3] was 7.00 to 8.00.
For the compound `COc1cn(Cc2cc(F)ccc2F)c(Nc2cccc(Cl)c2C)nc1=O` [Compound I-0328], under setting [2], the pIC50 is 7.00 to 8.00.
In the case of `COc1ccc(Nc2nc(=O)c(C(N)=O)cn2Cc2cc(F)c(F)c(F)c2)c(C)c1` [Compound I-1100], the negative-log IC50 (pIC50) under setting [3] is 7.00 to 8.00.
Regarding `COc1cn(Cc2cc(F)c(F)c(F)c2)c(Nc2ccc3[nH]ccc3c2C)nc1=O` [Compound I-0939], under setting [1], the pIC50 was 8.40.
Consider `COc1cn(Cc2cc(F)cc(F)c2)c(Nc2cc(C)c(OCC(F)(F)F)cc2C)nc1=O` [Compound I-0806], for which the pIC50 under setting [3] was 7.00 to 8.00.
Consider `COc1cn(Cc2ccc(F)c(Cl)c2)c(Nc2cc(OC(C)C)ccc2C)nc1=O` [Compound I-0321], for which the pIC50 under setting [2] is 7.00 to 8.00.
As for `COc1cn(Cc2ccccc2)c(Nc2cccc3c(=O)n(C)ccc23)nc1=O` [Compound I-0901], the pIC50 under setting [3] is 6.30 to 7.00.
Turning to `COc1cn(Cc2ccccc2)c(Nc2cc(SC(F)(F)F)ccc2C)nc1=O` [Compound I-0512], the pIC50 under setting [2] is 6.30 to 7.00.
Take `Cc1c(Cl)cccc1Nc1nc(=O)c(CC(=O)N2CCOCC2)cn1Cc1ccccc1` [Compound I-0339]: the pIC50 under setting [2] was 6.30 to 7.00.
With `Cc1cc(OC(F)(F)F)ccc1Nc1nc(=O)c(F)cn1Cc1cc(F)cc(F)c1` [Compound I-1102], under setting [3], the pIC50 was 7.00 to 8.00.
The same measure, in the same setting: next, `C#Cc1cc(Nc2nc(=O)c(OC)cn2Cc2ccc(F)c(Cl)c2)c(C)cc1F` [Compound I-0916]: 7.00 to 8.00; `COc1cn(Cc2cc(F)c(F)c(F)c2)c(Nc2cc3c(cc2C)OCCC3)nc1=O` [Compound I-0917]: 7.00 to 8.00.
In the case of `COc1cn(Cc2cc(F)c(F)c(F)c2)c(Nc2ccc(C)cc2C)nc1=O` [Compound I-0570], the pIC50 under setting [2] was more than 8.00.
Regarding `COc1cn(Cc2ccccc2)c(Nc2cccc(C(F)(F)F)c2C)nc1=O` [Compound I-0085], under setting [2], the negative logarithm of the IC50 (pIC50) is 7.00 to 8.00.
For `CCc1cc2c(cc1Nc1nc(=O)c(OC)cn1Cc1cc(F)cc(F)c1)OCCO2` [Compound I-0797], the pIC50 under setting [3] was 7.00 to 8.00.
In the case of `CCc1cc2c(cc1Nc1nc(=O)c(OC)cn1Cc1cccc(F)c1)CCC2` [Compound I-0179], the pIC50 under setting [2] was more than 8.00.
Regarding `CCc1ccc(OC)cc1Nc1nc(=O)c(OC)cn1Cc1cc(F)cc(F)c1` [Compound I-0637], under setting [3], the pIC50 was more than 8.00.
On to `COc1cn(Cc2ccccc2)c(NCc2ccccc2N(C)C)nc1=O` [Compound I-0067], for which the pIC50 under setting [2] was 6.00 to 6.30.
For `CCc1ccccc1Nc1nc(=O)c(OC)cn1Cc1ccc(Cl)c(F)c1` [Compound I-0225], the pIC50 under setting [2] was 6.30 to 7.00.
Consider `COc1cc(C)c(Nc2nc(=O)c(C#N)cn2Cc2cc(F)c(F)c(F)c2)cc1C` [Compound I-1083], for which, under setting [3], the pIC50 is more than 8.00.
For `Cc1c(Cl)cccc1Nc1nc(=O)c(O)cn1Cc1ccccc1` [Compound I-0203], the pIC50 under setting [1] was 7.74.
On to `COc1cn(Cc2ccccc2COC(F)F)c(Nc2cccc(Cl)c2C)nc1=O` [Compound I-0458], for which the pIC50 under setting [2] is 7.00 to 8.00.
As for `CCOc1cc(C)c(Nc2nc(=O)c(OC)cn2Cc2ccccc2)cc1C` [Compound I-0206], the pIC50 under setting [2] was 7.00 to 8.00.
For the compound `C=C(C)c1ccc(C)c(Nc2nc(=O)c(OC)cn2Cc2ccccc2)c1` [Compound I-0722], the pIC50 under setting [3] is 7.00 to 8.00.
As for `CCOc1cc(Nc2nc(=O)c(F)cn2Cc2cc(F)cc(F)c2)c(C)cc1F` [Compound I-1032], the pIC50 under setting [3] is 7.00 to 8.00.
As for `Cc1cc2c(cc1Nc1nc(=O)cnn1Cc1cc(F)c(F)c(F)c1)COC2` [Compound I-1280], the pIC50 under setting [3] was more than 8.00.
As to `COc1cn(Cc2ccc(F)c(Cl)c2)c(Nc2ccc(N3CCOCC3)cc2C)nc1=O` [Compound I-0548], the pIC50 under setting [2] was 7.00 to 8.00.
On the same count and under the same terms, for `COc1ccc(Nc2nc(=O)c(OC)cn2Cc2cc(F)c(F)c(F)c2)c(C)c1` [Compound I-0581] the value was more than 8.00.
Turning to `Cc1cc(S(C)(=O)=O)cc(Nc2nc(=O)c(F)cn2Cc2cc(F)c(F)c(F)c2)c1C` [Compound I-1212], the pIC50 under setting [3] is more than 8.00.
Same read-out and setting: for `COc1cn(Cc2ccccc2)c(Nc2cc(-c3ccc(C)o3)ccc2C)nc1=O` [Compound I-0658] the value was 7.00 to 8.00.
For the compound `COc1cn(Cc2cc(F)c(F)c(F)c2)c(Nc2cc3sc(C)nc3cc2C)nc1=O` [Compound I-0940], the pIC50 under setting [1] was 6.62.
On to `Cc1ccc(C)c(Nc2nc(=O)c(F)cn2Cc2cc(F)c(F)c(F)c2)c1` [Compound I-1194], for which the pIC50 under setting [3] is more than 8.00.
As for `Cc1ccc(C)c(Nc2nc(=N)c(F)cn2Cc2cc(F)c(F)c(F)c2)c1` [Compound I-1294], the pIC50 under setting [3] is 7.00 to 8.00.
Same read-out and setting: next, `COc1cn(Cc2ccc(F)c(Cl)c2)c(Nc2cc(Oc3ccccn3)ccc2C)nc1=O` [Compound I-0896]: more than 8.00; `Cc1cc(C)c(OC(F)F)cc1Nc1nc(=O)c(F)cn1Cc1cc(F)c(F)c(F)c1` [Compound I-1230]: more than 8.00.
For `COc1cn(Cc2ccc(F)c(Cl)c2)c(Nc2c(C)cc3oc(C)cc3c2C)nc1=O` [Compound I-0833], under setting [1], the pIC50 was 7.41.
As for `CCc1cc2c(cc1Nc1nc(=O)c(OC)cn1Cc1ccc(F)c(Cl)c1)OCCO2` [Compound I-0798], the pIC50 under setting [3] is 7.00 to 8.00.
Consider `COc1cn(Cc2ccccc2)c(Nc2cccc3c2CCO3)nc1=O` [Compound I-0120], for which the pIC50 under setting [1] is 6.17.
Take `Cc1ccc(-c2ncco2)cc1Nc1nc(=O)c(Cl)cn1Cc1ccc(F)c(F)c1` [Compound I-0853]: the pIC50 under setting [3] is more than 8.00.
Take `COc1cn(Cc2cc(F)c(F)c(F)c2)c(Nc2cc3sc(C)nc3cc2C)nc1=O` [Compound I-0697]: the pIC50 under setting [3] is more than 8.00.
On to `COc1cn(Cc2cc(F)cc(Cl)c2)c(Nc2cc(OC(C)C)ccc2C)nc1=O` [Compound I-0557], for which, under setting [2], the pIC50 is 7.00 to 8.00.
`CCc1cc(OC)ccc1Nc1nc(=O)c(OC)cn1Cc1ccc(F)c(F)c1` [Compound I-0264]: under setting [2], the pIC50 is more than 8.00.
On to `COc1cn(Cc2cc(F)c(F)c(F)c2)c(Nc2ccc(Oc3ccnc(F)c3)cc2C)nc1=O` [Compound I-0933], for which, under setting [3], the pIC50 was 6.30 to 7.00.
On the same count and under the same terms, next, `CCc1ccc(OC)cc1Nc1nc(=O)c(OC)cn1Cc1cc(F)cc(Cl)c1` [Compound I-0657]: 7.00 to 8.00; `COc1cn(Cc2ccccc2)c(Nc2ccc(Cl)cc2C)cc1=O` [Compound I-0950]: 6.30 to 7.00.
In the case of `COc1cn(Cc2cccc(Cl)c2)c(Nc2cc(C)c(Cl)cc2C)nc1=O` [Compound I-0172], under setting [2], the pIC50 was 7.00 to 8.00.
On the same count and under the same terms, for `CCc1ccccc1Nc1nc(=O)c(F)cn1Cc1ccc(F)cc1` [Compound I-0140] the value was 7.00 to 8.00.
For `COc1cn(Cc2cc(F)cc(F)c2)c(Nc2cc3c(cc2C)OCCO3)nc1=O` [Compound I-0709], the pIC50 under setting [3] is more than 8.00.
With `COc1cn(Cc2ccccc2)c(Nc2cc3c(cc2C)OCO3)nc1=O` [Compound I-0720], the pIC50 under setting [3] is 7.00 to 8.00.
Take `CCc1ccccc1Nc1nc(=O)c(F)cn1Cc1cc(F)c(F)c(F)c1` [Compound I-1176]: under setting [3], the negative logarithm of the IC50 (pIC50) was more than 8.00.
As to `COc1cn(Cc2ccccc2)c(Nc2cc(C)ccc2C)nc1=O` [Compound I-0068], the pIC50 under setting [2] is 7.00 to 8.00.
